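Cultured in 96-well plates, cells were exposed to test compound for 48 hours across five concentrations. TGI marks complete inhibition of growth.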
Key:
Test in all cases: inhibition of tumour cell growth, NCI panel, 48 h
[1] = test system: HL-60(TB) leukemia
[2] = test system: M14 melanoma
[3] = test system: HOP-92 NSCLC
[4] = test system: DU-145 prostate
[5] = test system: HS 578T breast
[6] = test system: PC-3 prostate
[7] = test system: RXF 393 renal
[8] = test system: SK-MEL-2 melanoma
[9] = test system: T-47D breast
[10] = test system: UACC-257 melanoma
[11] = test system: CAKI-1 renal
[12] = test system: SW-620 colon
[13] = test system: 786-0 renal
[14] = test system: KM12 colon
[15] = test system: BT-549 breast
[16] = test system: SR leukemia
[17] = test system: IGROV1 ovarian
[18] = test system: COLO 205 colon
[19] = test system: MALME-3M melanoma
[20] = test system: SNB-19 CNS
[21] = test system: SK-MEL-5 melanoma
[22] = test system: TK-10 renal
[23] = test system: A498 renal
[24] = test system: A549 NSCLC
[25] = test system: NCI-H522 lung
[26] = test system: SF-539 CNS
[27] = test system: NCI-H226 lung
[28] = test system: EKVX NSCLC
[29] = test system: UO-31 renal
[30] = test system: MDA-MB-435
[31] = test system: OVCAR-4 ovarian
[32] = test system: LOX IMVI melanoma
[33] = test system: OVCAR-8 ovarian
[34] = test system: SK-OV-3 ovarian
[35] = test system: U251 CNS
[36] = test system: K-562 leukemia
[37] = test system: NCI-H23 lung
[38] = test system: CCRF-CEM leukemia
[39] = test system: MCF7 breast
[40] = test system: HOP-62 NSCLC
[41] = test system: OVCAR-5 ovarian
[42] = test system: SNB-75 CNS
[43] = test system: MDA-N
[44] = test system: HCT-116 colon
[45] = test system: SN12C renal
[46] = test system: HCT-15 colon
[47] = test system: SK-MEL-28 melanoma
[48] = test system: SF-268 CNS
[49] = test system: OVCAR-3 ovarian
[50] = test system: MDA-MB-231 breast
[51] = test system: NCI-H460 lung
[52] = test system: RPMI-8226 leukemia
[53] = test system: HT29 colon
[54] = test system: SF-295 CNS
[55] = test system: ACHN renal
[56] = test system: HCC-2998 colon
[57] = test system: UACC-62 melanoma
[58] = test system: MOLT-4 leukemia
[59] = test system: NCI/ADR-RES ovarian

**Q.** Which results are given for `COC1CC(OC2CCC3(C)C(=CCC4C3C(OC(C)=O)C(OC(=O)CC(C)C)C3(C)C(C(C)=O)CCC43O)C2)OC(C)C1OC1CC(OC)C(OC2CC(OC)C(OC3OC(C)C(O)C(OC)C3O)C(C)O2)C(C)O1` (centres undefined)?
**A.** TGI [1]: 74.5 µM; TGI [2]: > 100 µM; TGI [3]: 57.6 µM; TGI [4]: > 100 µM; TGI [5]: > 100 µM; TGI [6]: > 100 µM; TGI [7]: 47.2 µM; TGI [8]: 93.3 µM; TGI [9]: > 100 µM; TGI [10]: > 100 µM; TGI [11]: > 100 µM; TGI [12]: 94.7 µM; TGI [13]: 59.9 µM; TGI [14]: > 100 µM; TGI [15]: 69.6 µM; TGI [16]: 62 µM; TGI [17]: > 100 µM; TGI [18]: 45 µM; TGI [19]: > 100 µM; TGI [20]: > 100 µM; TGI [21]: 42.7 µM; TGI [22]: > 100 µM; TGI [23]: > 100 µM; TGI [24]: > 100 µM; TGI [25]: > 100 µM; TGI [26]: 51.2 µM; TGI [27]: 89.9 µM; TGI [28]: > 100 µM; TGI [29]: > 100 µM; TGI [30]: 63.5 µM; TGI [31]: > 100 µM; TGI [32]: 43.5 µM; TGI [33]: > 100 µM; TGI [34]: > 100 µM; TGI [35]: > 100 µM; TGI [36]: > 100 µM; TGI [37]: > 100 µM; TGI [38]: 72.6 µM; TGI [39]: 93.6 µM; TGI [40]: > 100 µM; TGI [41]: > 100 µM; TGI [42]: 70 µM; TGI [43]: > 100 µM; TGI [44]: 60.6 µM; TGI [45]: > 100 µM; TGI [46]: > 100 µM; TGI [47]: > 100 µM; TGI [48]: > 100 µM; TGI [49]: > 100 µM; TGI [50]: 65.6 µM; TGI [51]: > 100 µM; TGI [52]: 45.8 µM; TGI [53]: 42.8 µM; TGI [54]: > 100 µM; TGI [55]: > 100 µM; TGI [56]: 70.3 µM; TGI [57]: > 100 µM; TGI [58]: 45.6 µM

**Q.** With `O=S(=O)(O)c1cc(S(=O)(=O)O)c2cc(N=Nc3c(O)ccc4ccccc34)ccc2c1` as the compound, how does the TGI [1] read?
**A.** > 100 µM

**Q.** And the TGI [2]?
**A.** > 100 µM

**Q.** What about the TGI [3] of the same compound?
**A.** > 100 µM

**Q.** What about the TGI [4] of the same compound?
**A.** > 100 µM

**Q.** What about the TGI [5] of the same compound?
**A.** > 100 µM

**Q.** And the TGI [6]?
**A.** > 100 µM

**Q.** And the TGI [7]?
**A.** > 100 µM

**Q.** What about the TGI [59] of the same compound?
**A.** > 100 µM

**Q.** What about the TGI [8] of the same compound?
**A.** > 100 µM

**Q.** What about the TGI [9] of the same compound?
**A.** > 100 µM

**Q.** And the TGI [10]?
**A.** > 100 µM

**Q.** What about the TGI [11] of the same compound?
**A.** > 100 µM

**Q.** And the TGI [12]?
**A.** > 100 µM

**Q.** And the TGI [13]?
**A.** > 100 µM

**Q.** And the TGI [14]?
**A.** > 100 µM

**Q.** What about the TGI [15] of the same compound?
**A.** > 100 µM

**Q.** What about the TGI [17] of the same compound?
**A.** > 100 µM

**Q.** And the TGI [18]?
**A.** > 100 µM

**Q.** And the TGI [19]?
**A.** > 100 µM

**Q.** What about the TGI [20] of the same compound?
**A.** > 100 µM

**Q.** What about the TGI [21] of the same compound?
**A.** > 100 µM

**Q.** And the TGI [22]?
**A.** > 100 µM

**Q.** What about the TGI [24] of the same compound?
**A.** > 100 µM

**Q.** And the TGI [25]?
**A.** > 100 µM

**Q.** What about the TGI [27] of the same compound?
**A.** > 100 µM

**Q.** And the TGI [28]?
**A.** > 100 µM

**Q.** And the TGI [29]?
**A.** > 100 µM

**Q.** And the TGI [30]?
**A.** > 100 µM

**Q.** And the TGI [31]?
**A.** > 100 µM

**Q.** What about the TGI [32] of the same compound?
**A.** > 100 µM

**Q.** What about the TGI [33] of the same compound?
**A.** > 100 µM

**Q.** And the TGI [34]?
**A.** > 100 µM

**Q.** What about the TGI [35] of the same compound?
**A.** > 100 µM

**Q.** What about the TGI [36] of the same compound?
**A.** > 100 µM

**Q.** What about the TGI [37] of the same compound?
**A.** > 100 µM

**Q.** And the TGI [38]?
**A.** > 100 µM

**Q.** And the TGI [40]?
**A.** > 100 µM

**Q.** What about the TGI [41] of the same compound?
**A.** > 100 µM

**Q.** And the TGI [42]?
**A.** > 100 µM

**Q.** What about the TGI [43] of the same compound?
**A.** > 100 µM

**Q.** And the TGI [44]?
**A.** > 100 µM

**Q.** And the TGI [45]?
**A.** > 100 µM

**Q.** And the TGI [46]?
**A.** > 100 µM

**Q.** What about the TGI [47] of the same compound?
**A.** > 100 µM

**Q.** What about the TGI [48] of the same compound?
**A.** > 100 µM

**Q.** What about the TGI [49] of the same compound?
**A.** > 100 µM

**Q.** And the TGI [50]?
**A.** > 100 µM

**Q.** And the TGI [52]?
**A.** > 100 µM

**Q.** What about the TGI [53] of the same compound?
**A.** > 100 µM

**Q.** And the TGI [54]?
**A.** > 100 µM

**Q.** And the TGI [55]?
**A.** > 100 µM

**Q.** And the TGI [57]?
**A.** > 100 µM

**Q.** What about the TGI [58] of the same compound?
**A.** > 100 µM

**Q.** Which results are given for `CC(C)=NNc1snnc1C(N)=O`?
**A.** TGI [1]: > 100 µM; TGI [2]: > 100 µM; TGI [4]: > 100 µM; TGI [5]: > 100 µM; TGI [6]: > 100 µM; TGI [7]: > 100 µM; TGI [59]: > 100 µM; TGI [8]: > 100 µM; TGI [9]: > 100 µM; TGI [10]: > 100 µM; TGI [11]: > 100 µM; TGI [13]: > 100 µM; TGI [14]: > 100 µM; TGI [15]: > 100 µM; TGI [17]: > 100 µM; TGI [18]: > 100 µM; TGI [19]: > 100 µM; TGI [20]: > 100 µM; TGI [21]: > 100 µM; TGI [22]: > 100 µM; TGI [23]: > 100 µM; TGI [24]: > 100 µM; TGI [25]: > 100 µM; TGI [26]: > 100 µM; TGI [27]: > 100 µM; TGI [28]: > 100 µM; TGI [29]: > 100 µM; TGI [30]: > 100 µM; TGI [32]: > 100 µM; TGI [33]: > 100 µM; TGI [34]: > 100 µM; TGI [35]: > 100 µM; TGI [36]: > 100 µM; TGI [37]: > 100 µM; TGI [38]: > 100 µM; TGI [39]: > 100 µM; TGI [40]: > 100 µM; TGI [41]: > 100 µM; TGI [42]: > 100 µM; TGI [43]: > 100 µM; TGI [44]: > 100 µM; TGI [45]: > 100 µM; TGI [47]: > 100 µM; TGI [48]: > 100 µM; TGI [49]: > 100 µM; TGI [50]: > 100 µM; TGI [52]: > 100 µM; TGI [53]: > 100 µM; TGI [54]: > 100 µM; TGI [55]: > 100 µM; TGI [56]: > 100 µM; TGI [57]: > 100 µM; TGI [58]: > 100 µM

Source: PubChem BioAssay (NCI)
